Experimental data from US20120309676A1, “Lantibiotic Salts” (priority 2010, published 2012).
Structures can show the parent of a compound that is named as a salt.

Columns and labels:
[1] = system: Vancomycin-intermediate Staphylococcus aureus; assay: MIC susceptibility testing, vancomycin-intermediate Staphylococcus aureus; assay type: cell-based
Method: (§1) Susceptibility testing with the exception of Streptococcus pneumoniae was performed by two-fold serial dilutions in Mueller Hinton Broth supplemented with 50 μg/mL Ca^2+. Susceptibility testing of S. pneumoniae was performed by two-fold serial dilutions in Brain-Heart-Infusion Broth supplemented with 50 μg/mL Ca^2+.
(§2) Modal values from up to 6 determinations

[2] = system: Methicillin-sensitive Staph. epidermidis; assay: MIC susceptibility testing, methicillin-sensitive Staph. epidermidis; assay type: cell-based, S. epidermidis
Method: as §1, §2

[3] = system: Vancomycin sensitive enterococci, E. faecalis; assay: MIC susceptibility testing, vancomycin sensitive enterococci (E. faecalis); assay type: cell-based
Method: as §1, §2

[4] = system: Vancomycin resistant enterococci, E. faecalis; assay: MIC susceptibility testing, vancomycin resistant enterococci (E. faecalis); assay type: cell-based
Method: as §1, §2

S. pyogenes = assay: MIC susceptibility testing, S. pyogenes; assay type: cell-based
Method: as §1, §2

[5] = system: Staphylococcus aureus methicillin resistant ATCC 33591; assay: Mouse bacteraemia model, second experiment, IV dosing; assay type: in vivo; conditions: for number of deaths: after 7 days, groups of 6 mice
Method: In a second experiment Groups of 6 male CD-1 (Crl.) derived mice weighing 24±2 g were used. Mice were inoculated intraperitoneally (IP) with an LD90-100 of Staphylococcus aureus methicillin resistant ATCC 33591 (1.35×10^8 CFU/mouse) in 0.5 mL of BHI broth containing 5% mucin. Example 1 was dissolved in 5% dextrose/1.5 mM potassium phosphate, pH 5.0 and doses of 1, 3, 5 and 10 mg/Kg were administered intravenously (IV) to test animals at 1 and 13 hour(s) after bacteria challenge. The dosing volume was 5 mL/Kg. Mortality was recorded once daily for 7 days.

[6] = system: Methicillin Resistant Staphylococcus aureus (MRSA, ATCC 33591); assay: Neutropaenic mouse thigh infection model, further experiment; assay type: in vivo; conditions: IV 2 and 14 h after infection, 2.5-50 mg/Kg, FIG. 3
Method: In a further experiment, groups of 6 male ICR mice weighing 24±2 g were used. Test animals were immunosuppressed by 2 intraperitoneal injections of cyclophosphamide, the first at 150 mg/Kg 4 days before infection (day-4) and the second at 100 mg/Kg 1 day before infection (day-1). On day 0, individual animals were inoculated intramuscularly (IM) into the right thigh of test animals with 1.5×10^5 CFU/mouse of Methicillin Resistant Staphylococcus aureus (MRSA, ATCC 33591) suspended in 100 μL of sterile PBS, pH 7.4. Vehicle and test substances were administered intravenously (IV) at a dose volume of 8 mL/Kg, 2 and 14 hours after thigh infection. Example 1 was dissolved in 5% dextrose/1 mM potassium phosphate, pH 5.0 and administered at doses of 2.5, 5, 10, 15, 25 and 50 mg/Kg. At 26 hours after inoculation, muscle of the right thigh of each test mouse was harvested. From an additional group with no treatment, muscle of the right thigh was harvested at 2 hours after inoculation for the basal CFU determination. The removed muscle tissues were then homogenized in 3-4 mL of PBS, pH 7.4 with a ceramic mortar. Homogenates of 0.1 mL were used for serial 10-fold dilutions and plated on Mueller Hinton broth in 1.5% Bacto agar for CFU determination.

CC[C@H](C)[C@@H]1NC(=O)[C@@H]2NC(=O)[C@H](CC(C)C)NC(=O)[C@H](NC(=O)[C@@H]3CSC[C@@H](N)C(=O)N[C@@H](CO)C(=O)NCC(=O)N[C@@H](Cc4c[nH]c5ccccc45)C(=O)N[C@@H](C(C)C)C(=O)N3)[C@H](C)SC[C@H](NC(=O)[C@H](CCC(=O)O)NC1=O)C(=O)NCC(=O)N[C@H]1C(=O)N[C@@H](CC(C)C)C(=O)N[C@@H](C(C)C)C(=O)N[C@@H](CS[C@H]2C)C(=O)N[C@@H](C)C(=O)N[C@H](C(=O)NCc2cc(Cl)cc(Cl)c2)CS[C@H]1C [Example 1, Deoxyactagardine B (3,5-dichlorobenzylamine) monocarboxamide N-methyl glucamine salt]
<2 µg/mL: MIC (S. pyogenes; S. pyogenes 7755255)
4 to 8 µg/mL: MIC ([2]; S. epidermidis GRL05004) | MIC ([2]; S. epidermidis GRL05005) | MIC ([2]; S. epidermidis GRL05006) | MIC ([2]; S. epidermidis GRL05008) | MIC ([3]; E. faecalis GRL05027)
0.06 to 0.125 µg/mL: MIC (S. pyogenes; S. pyogenes 7755584)
8 µg/mL: MIC ([1]; S. aureus Mu3) | MIC ([1]; S. aureus NJ) | MIC ([2]; S. epidermidis GRL05001) | MIC ([2]; S. epidermidis GRL05002) | MIC ([2]; S. epidermidis GRL05003) | MIC ([3]; E. faecalis GRL05026) | MIC ([4]; E. faecalis 9758512) | MIC ([4]; E. faecalis GRL05032) | MIC ([4]; E. faecalis GRL05033) | MIC ([4]; E. faecalis GRL05035) | MIC (S. pyogenes; S. pyogenes 7865844)
<8 µg/mL: MIC ([3]; E. faecalis GRL05022) | MIC ([3]; E. faecalis GRL05024) | MIC ([3]; E. faecalis GRL05030) | MIC (S. pyogenes; S. pyogenes GRL05043)
<16 µg/mL: MIC ([2]; S. epidermidis GRL05007) | MIC ([2]; S. epidermidis GRL05010) | MIC ([3]; E. faecalis 7791220)
0.06 µg/mL: MIC (S. pyogenes; S. pyogenes 7713283) | MIC (S. pyogenes; S. pyogenes 7755441) | MIC (S. pyogenes; S. pyogenes 7865253) | MIC (S. pyogenes; S. pyogenes 7865289) | MIC (S. pyogenes; S. pyogenes GRL05042) | MIC (S. pyogenes; S. pyogenes GRL05046)
2 to 4 µg/mL: MIC ([4]; E. faecalis GRL05031)
dose dependent reduction: bacterial counts in the thigh tissue [6]
<4 µg/mL: MIC ([3]; E. faecalis 7757400) | MIC (S. pyogenes; S. pyogenes GRL05045)
4: number of deaths ([5]; 3 mg/kg IV at 1 and 13 h after challenge)
4 µg/mL: MIC ([1]; S. aureus 2) | MIC ([1]; S. aureus 26) | MIC ([1]; S. aureus Mu50) | MIC ([1]; S. aureus V99) | MIC ([2]; S. epidermidis MF87) | MIC ([3]; E. faecalis GRL05023) | MIC ([3]; E. faecalis GRL05029) | MIC ([4]; E. faecalis GRL05034)
dose-dependent incease in survival: survival of mice after 7 days ([5]; 1, 3, 5 and 10 mg/kg)
16 µg/mL: MIC ([1]; S. aureus MI) | MIC ([2]; S. epidermidis 9AF) | MIC ([2]; S. epidermidis C12) | MIC ([2]; S. epidermidis C16) | MIC ([2]; S. epidermidis GRL05009)
1: number of deaths ([5]; 5 mg/kg IV at 1 and 13 h after challenge) | number of deaths ([5]; 10 mg/kg IV at 1 and 13 h after challenge)
<1 µg/mL: MIC (S. pyogenes; S. pyogenes 7757080) | MIC (S. pyogenes; S. pyogenes GRL05041)
5: number of deaths ([5]; 1 mg/kg IV at 1 and 13 h after challenge)
